Laboratory results as given in article PMC4798942 (ACS chemical biology, 2015).
Like-named read-outs stand apart in the source and are kept apart here. Values belong to the molecule of their own block, whether it stands above or below them.

Assays:
Type in all cases: biochemical
[1] = target: T1, human CP4H1 (collagen prolyl 4-hydroxylase 1, alpha(I)2beta2 holoenzyme) (Homo sapiens, UniProt P13674); assay: inhibition of CP4H1 activity in vitro; settings: 100 µM compound
[2] = target: T1, human CP4H1 (collagen prolyl 4-hydroxylase 1, alpha(I)2beta2 holoenzyme); assay: dose-response inhibition of CP4H1 hydroxylation activity
[3] = target: human PHD2 (Homo sapiens, UniProt Q9GZT9); assay: inhibition of PHD2 activity in vitro
Chain of human PHD2 (Q9GZT9 2-426): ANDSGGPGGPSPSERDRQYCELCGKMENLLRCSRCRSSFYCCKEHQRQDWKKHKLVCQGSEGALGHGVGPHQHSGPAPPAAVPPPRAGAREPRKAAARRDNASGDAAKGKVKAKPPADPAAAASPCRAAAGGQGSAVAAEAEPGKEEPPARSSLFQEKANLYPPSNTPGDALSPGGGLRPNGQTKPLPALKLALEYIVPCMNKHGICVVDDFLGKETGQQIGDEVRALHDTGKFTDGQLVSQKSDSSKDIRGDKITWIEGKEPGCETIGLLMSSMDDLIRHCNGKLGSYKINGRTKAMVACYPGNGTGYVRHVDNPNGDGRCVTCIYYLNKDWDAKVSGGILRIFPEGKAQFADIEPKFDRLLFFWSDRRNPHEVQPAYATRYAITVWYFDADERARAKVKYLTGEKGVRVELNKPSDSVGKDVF

[4] = target: T1, human CP4H1 (collagen prolyl 4-hydroxylase 1, alpha(I)2beta2 holoenzyme); assay: Lineweaver-Burk analysis of CP4H1 activity
[5] = Fe(II) and AKG dependent reaction

T1 sequence (P13674 18-534): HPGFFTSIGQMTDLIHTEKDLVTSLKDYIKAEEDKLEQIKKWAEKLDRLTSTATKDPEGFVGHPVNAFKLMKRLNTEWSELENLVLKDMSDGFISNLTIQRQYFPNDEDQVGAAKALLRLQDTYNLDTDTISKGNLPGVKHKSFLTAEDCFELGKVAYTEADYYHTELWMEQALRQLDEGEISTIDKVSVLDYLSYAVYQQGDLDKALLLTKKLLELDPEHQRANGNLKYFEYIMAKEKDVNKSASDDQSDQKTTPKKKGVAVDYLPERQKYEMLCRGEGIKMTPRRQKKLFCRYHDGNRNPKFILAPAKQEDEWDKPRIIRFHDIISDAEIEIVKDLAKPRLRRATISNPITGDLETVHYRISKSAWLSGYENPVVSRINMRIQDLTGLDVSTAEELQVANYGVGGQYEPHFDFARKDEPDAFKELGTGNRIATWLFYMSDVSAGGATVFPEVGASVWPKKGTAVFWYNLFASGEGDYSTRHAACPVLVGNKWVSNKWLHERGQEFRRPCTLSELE
T1 sequence (P07237 18-508 partner): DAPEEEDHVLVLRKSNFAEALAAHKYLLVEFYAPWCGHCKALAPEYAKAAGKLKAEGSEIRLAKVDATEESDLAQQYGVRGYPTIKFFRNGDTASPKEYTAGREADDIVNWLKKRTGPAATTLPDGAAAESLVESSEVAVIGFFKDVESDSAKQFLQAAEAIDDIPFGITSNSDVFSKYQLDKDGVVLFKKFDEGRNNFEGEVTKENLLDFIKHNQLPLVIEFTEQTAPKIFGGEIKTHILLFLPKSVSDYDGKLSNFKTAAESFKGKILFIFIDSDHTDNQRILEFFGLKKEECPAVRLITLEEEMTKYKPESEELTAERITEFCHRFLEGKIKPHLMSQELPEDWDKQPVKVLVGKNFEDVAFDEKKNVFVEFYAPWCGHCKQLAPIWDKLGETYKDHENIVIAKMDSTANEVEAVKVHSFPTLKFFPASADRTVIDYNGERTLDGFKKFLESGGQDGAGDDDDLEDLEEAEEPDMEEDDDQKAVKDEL

SMILES: CCOC(=O)c1ccc(-c2ncc(C(=O)OCC)s2)nc1 [diethyl pythiDC]
inhibition at 100 μM [1]: No inhibition of catalysis by CP4H1 or PHD2 was observed in vitro with these diethyl esters

IC50 [2, 5]: 2.6 ± 0.1 µM
SMILES: O=C(O)c1ccc(-c2ncc(C(=O)O)[nH]2)nc1 [pyimDC]

IC50 [2, 5]: 33 ± 8 µM
SMILES: O=C(O)c1ccc(-c2ncc(C(=O)O)o2)nc1 [pyoxDC]

IC50 [2]: 4 ± 0.2 µM | Ki [4]: 0.39 ± 0.04 µM
SMILES: O=C(O)c1ccc(-c2ncc(C(=O)O)s2)nc1 [pythiDC, 2 (5-carboxythiazol-2-yl)pyridine-5-carboxylic acid]
inhibition [3]: inhibit human PHD2 only weakly (Figure S4), with pythiDC displaying especially low potency
